Measurements reported in ChEMBL document CHEMBL5537135, “Novel antimicrobial peptides modified with fluorinated sulfono-γ-AA having high stability and targeting multidrug-resistant bacteria infections” (Eur J Med Chem, 2024).
Converted amounts (≈) assume the structure as drawn. The source made the active and inactive calls. No cut-off for these calls is given here. Numbered stars: 1 amine (or outer) side, 2 acyl side, 3 side chain; on linkers, the order of the positions; unused ones are H or OH. Square brackets hold non-standard residues; d marks the D form. Peptide text beside a SMILES is read from it. * marks the point of attachment. X4 = N[C@@H](Cc1ccccc1)CN(CC(=O)[*:2])[*:1]; X1 = O=S(=O)(c1ccc(C(F)(F)F)cc1)*

Assays:
Pseudomonas aeruginosa [1] = assay: Antimicrobial activity against multidrug-resistant Pseudomonas aeruginosa 124 assessed as inhibition of visible bacterial growth incubated for 18 hrs by broth-dilution method; type: functional
Staphylococcus aureus [2] = assay: Antimicrobial activity against methicillin-resistant Staphylococcus aureus 10 assessed as inhibition of visible bacterial growth incubated for 18 hrs by broth-dilution method; type: functional
[3] = system: Staphylococcus epidermidis; assay: Antimicrobial activity against Staphylococcus epidermidis ATCC 12228 assessed as inhibition of visible bacterial growth incubated for 18 hrs by broth-dilution method; type: functional
Pseudomonas aeruginosa [4] = assay: Antimicrobial activity against multidrug-resistant Pseudomonas aeruginosa 156 assessed as inhibition of visible bacterial growth incubated for 18 hrs by broth-dilution method; type: functional
Staphylococcus aureus [5] = assay: Antimicrobial activity against methicillin-resistant Staphylococcus aureus 2 assessed as inhibition of visible bacterial growth incubated for 18 hrs by broth-dilution method; type: functional
Staphylococcus aureus [6] = assay: Antimicrobial activity against methicillin-resistant Staphylococcus aureus 4 assessed as inhibition of visible bacterial growth incubated for 18 hrs by broth-dilution method; type: functional
Pseudomonas aeruginosa [7] = assay: Antimicrobial activity against Pseudomonas aeruginosa ATCC 27853 in presence of human serum; type: functional, organism-based
Staphylococcus aureus [8] = assay: Antimicrobial activity against methicillin-resistant Staphylococcus aureus 3 assessed as inhibition of visible bacterial growth incubated for 18 hrs by broth-dilution method; type: functional
Staphylococcus aureus [9] = assay: Antimicrobial activity against Staphylococcus aureus ATCC 25923 assessed as inhibition of visible bacterial growth incubated for 18 hrs by broth-dilution method; type: functional
Staphylococcus aureus [10] = assay: Antimicrobial activity against methicillin-resistant Staphylococcus aureus ATCC 33591 assessed as inhibition of visible bacterial growth incubated for 18 hrs by broth-dilution method; type: functional
Staphylococcus aureus [11] = assay: Antimicrobial activity against Staphylococcus aureus ATCC 25923 assessed as fold change in MIC in presence of salt solution; type: functional
Pseudomonas aeruginosa [12] = assay: Antimicrobial activity against multidrug-resistant Pseudomonas aeruginosa 073 assessed as inhibition of visible bacterial growth incubated for 18 hrs by broth-dilution method; type: functional
Pseudomonas aeruginosa [13] = assay: Antimicrobial activity against multidrug-resistant Pseudomonas aeruginosa 119 assessed as inhibition of visible bacterial growth incubated for 18 hrs by broth-dilution method; type: functional
Pseudomonas aeruginosa [14] = assay: Antimicrobial activity against multidrug-resistant Pseudomonas aeruginosa 157 assessed as inhibition of visible bacterial growth incubated for 18 hrs by broth-dilution method; type: functional
Acinetobacter baumannii = assay: Antimicrobial activity against Acinetobacter baumannii ATCC 19606 assessed as inhibition of visible bacterial growth incubated for 18 hrs by broth-dilution method; type: functional
Staphylococcus aureus [15] = assay: Antimicrobial activity against Staphylococcus aureus ATCC 25923 in presence of mouse serum; type: functional, organism-based
Staphylococcus aureus [16] = assay: Antimicrobial activity against Staphylococcus aureus ATCC 25923 assessed as reduction in bacterial growth in presence of Ca2+; type: functional
Escherichia coli = assay: Antimicrobial activity against Escherichia coli ATCC 25922 assessed as inhibition of visible bacterial growth incubated for 18 hrs by broth-dilution method; type: functional
Staphylococcus aureus [17] = assay: Antimicrobial activity against methicillin-resistant Staphylococcus aureus 7 assessed as inhibition of visible bacterial growth incubated for 18 hrs by broth-dilution method; type: functional
Staphylococcus aureus [18] = assay: Antimicrobial activity against methicillin-resistant Staphylococcus aureus 6 assessed as inhibition of visible bacterial growth incubated for 18 hrs by broth-dilution method; type: functional
Pseudomonas aeruginosa [19] = assay: Antimicrobial activity against Pseudomonas aeruginosa ATCC 27853 in presence of mouse serum; type: functional, organism-based
Staphylococcus aureus [20] = assay: Antimicrobial activity against methicillin-resistant Staphylococcus aureus ATCC 33591 in presence of mouse serum; type: functional, organism-based
Pseudomonas aeruginosa [21] = assay: Antimicrobial activity against multidrug-resistant Pseudomonas aeruginosa 085 assessed as inhibition of visible bacterial growth incubated for 18 hrs by broth-dilution method; type: functional
Staphylococcus aureus [22] = assay: Antimicrobial activity against methicillin-resistant Staphylococcus aureus 5 assessed as inhibition of visible bacterial growth incubated for 18 hrs by broth-dilution method; type: functional
Pseudomonas aeruginosa [23] = assay: Antimicrobial activity against multidrug-resistant Pseudomonas aeruginosa 061 assessed as inhibition of visible bacterial growth incubated for 18 hrs by broth-dilution method; type: functional
Pseudomonas aeruginosa [24] = assay: Antimicrobial activity against Pseudomonas aeruginosa ATCC 27853 assessed as inhibition of visible bacterial growth incubated for 18 hrs by broth-dilution method; type: functional
Pseudomonas aeruginosa [25] = assay: Antimicrobial activity against multidrug-resistant Pseudomonas aeruginosa 125 assessed as inhibition of visible bacterial growth incubated for 18 hrs by broth-dilution method; type: functional
Staphylococcus aureus [26] = assay: Antimicrobial activity against methicillin-resistant Staphylococcus aureus 1 assessed as inhibition of visible bacterial growth incubated for 18 hrs by broth-dilution method; type: functional
[27] = Stability in human serum assessed as half life measured for 5 hrs by RP-HPLC analysis; type: ADME, cell-free
Salmonella typhimurium = assay: Antimicrobial activity against Salmonella typhimurium ATCC 14028 assessed as inhibition of visible bacterial growth incubated for 18 hrs by broth-dilution method; type: functional, Salmonella enterica subsp. enterica serovar Typhimurium; details: Salmonella enterica
Staphylococcus aureus [28] = assay: Antimicrobial activity against methicillin-resistant Staphylococcus aureus 8 assessed as inhibition of visible bacterial growth incubated for 18 hrs by broth-dilution method; type: functional
Pseudomonas aeruginosa [29] = assay: Antimicrobial activity against multidrug-resistant Pseudomonas aeruginosa 516 assessed as inhibition of visible bacterial growth incubated for 18 hrs by broth-dilution method; type: functional
Staphylococcus aureus [30] = assay: Antimicrobial activity against methicillin-resistant Staphylococcus aureus 9 assessed as inhibition of visible bacterial growth incubated for 18 hrs by broth-dilution method; type: functional
Bacillus subtilis = assay: Antimicrobial activity against Bacillus subtilis ATCC 23857 assessed as inhibition of visible bacterial growth incubated for 18 hrs by broth-dilution method; type: functional
Staphylococcus aureus [31] = assay: Antimicrobial activity against methicillin-resistant Staphylococcus aureus ATCC 33591 in presence of human serum; type: functional, organism-based
Pseudomonas aeruginosa [32] = assay: Antimicrobial activity against multidrug-resistant Pseudomonas aeruginosa 050 assessed as inhibition of visible bacterial growth incubated for 18 hrs by broth-dilution method; type: functional
Erythrocyte = assay: Hemolytic activity against mouse Red blood cell incubated for 1 hr; type: toxicity, cell-based
Staphylococcus aureus [33] = assay: Antimicrobial activity against Staphylococcus aureus ATCC 25923 in presence of human serum; type: functional, organism-based

SMILES: CC(C)C[C@H](NC(=O)[C@H](CC(C)C)NC(=O)[C@H](CCCCN)NC(=O)[C@H](CCCCN)NC(=O)[C@H](CC(C)C)NC(=O)[C@H](C)NC(=O)[C@H](CCCCN)NC(=O)CN(C[C@@H](N)Cc1ccccc1)S(=O)(=O)c1ccc(C(F)(F)F)cc1)C(N)=O (X1-[X4]KALKKLL-NH2)
- MIC (Pseudomonas aeruginosa [1]): 4 µg/mL (≈ 3.3 µM)
- MIC (Staphylococcus aureus [2]): 8 µg/mL (≈ 6.61 µM)
- MIC [3]: 8 µg/mL (≈ 6.61 µM)
- MIC (Pseudomonas aeruginosa [4]): 16 µg/mL (≈ 13.2 µM)
- MIC (Staphylococcus aureus [5]): 8 µg/mL (≈ 6.61 µM)
- MIC (Staphylococcus aureus [6]): 8 µg/mL (≈ 6.61 µM)
- Activity (Pseudomonas aeruginosa [7]): Active
- MIC (Staphylococcus aureus [8]): 8 µg/mL (≈ 6.61 µM)
- MIC (Staphylococcus aureus [9]): 8 µg/mL (≈ 6.61 µM)
- MIC (Staphylococcus aureus [10]): 8 µg/mL (≈ 6.61 µM)
- fold change (FC) (Staphylococcus aureus [11]): 0.25
- MIC (Pseudomonas aeruginosa [12]): 8 µg/mL (≈ 6.61 µM)
- MIC (Pseudomonas aeruginosa [13]): 4 µg/mL (≈ 3.3 µM)
- MIC (Pseudomonas aeruginosa [14]): 4 µg/mL (≈ 3.3 µM)
- MIC (Acinetobacter baumannii): 16 µg/mL (≈ 13.2 µM)
- Activity (Staphylococcus aureus [15]): inactive
- MIC (Staphylococcus aureus [16]): 32 µg/mL
- MIC (Escherichia coli): 16 µg/mL (≈ 13.2 µM)
- MIC (Staphylococcus aureus [17]): 8 µg/mL (≈ 6.61 µM)
- MIC (Staphylococcus aureus [18]): 8 µg/mL (≈ 6.61 µM)
- Activity (Pseudomonas aeruginosa [19]): inactive
- Activity (Staphylococcus aureus [20]): inactive
- MIC (Pseudomonas aeruginosa [21]): 8 µg/mL (≈ 6.61 µM)
- MIC (Staphylococcus aureus [22]): 8 µg/mL (≈ 6.61 µM)
- MIC (Pseudomonas aeruginosa [23]): 4 µg/mL (≈ 3.3 µM)
- MIC (Pseudomonas aeruginosa [24]): 8 µg/mL (≈ 6.61 µM)
- MIC (Pseudomonas aeruginosa [25]): 8 µg/mL (≈ 6.61 µM)
- MIC (Staphylococcus aureus [26]): 4 µg/mL (≈ 3.3 µM)
- half-life [27]: 3.93 h
- MIC (Salmonella typhimurium): 16 µg/mL (≈ 13.2 µM)
- MIC (Staphylococcus aureus [28]): 8 µg/mL (≈ 6.61 µM)
- MIC (Pseudomonas aeruginosa [29]): 8 µg/mL (≈ 6.61 µM)
- MIC (Staphylococcus aureus [30]): 8 µg/mL (≈ 6.61 µM)
- MIC (Bacillus subtilis): 4 µg/mL (≈ 3.3 µM)
- Activity (Staphylococcus aureus [31]): Active
- MIC (Pseudomonas aeruginosa [32]): 8 µg/mL (≈ 6.61 µM)
- MHC (Erythrocyte): 256 µg/mL
- Activity (Staphylococcus aureus [33]): Active
